Source: US9040530B2, “1,2,4-triazine-6-carboxamide kinase inhibitors” (Portola Pharmaceuticals, Inc., priority 2012, dated 2015)
pIC50: −log10 of the molar value.

target: T1, full length active recombinant SYK enzyme (Homo sapiens, UniProt P43405); assay: Inhibition of Syk tyrosine phosphorylation activity (LANCE TR-FRET kinase assay); type: biochemical; details: 1 nM active SYK enzyme, 550 nM SYK-substrate, 100 μM ATP, 1 hour at room temperature
T1 construct: full length active recombinant SYK enzyme (Millipore, Calif.); purchased Millipore
Experimental: The in vitro and in vivo human Syk activities of the inventive compounds can be determined by various procedures known in the art, such as a test for their ability to inhibit the activity of human plasma Syk.
Inhibition of Syk Tyrosine Phosphorylation Activity
SYK tyrosine phosphorylation activity is measured using the LANCE™ Technology developed by Perkin Elmer Life and Analytical Sciences (Boston, Mass.). LANCE™ refers to homogeneous time resolved fluorometry applications using techniques such as time-resolved fluorescence resonance energy transfer assay (TR-FRET) (see generally for procedures in Perkin Elmer Application Note—How to Optimize a Tyrosine Kinase Assay Using Time Resolved Fluorescence-Based LANCE Detection, wwww.perkinelmer.com/lifesciences). The assay principle involves detection of a phosphorylated substrate using energy transfer from a phosphospecific europium-labeled antibody to streptavidin-allophycocyanin as an acceptor.
Molecules are reconstituted in 30% DMSO and serially diluted 1:3 with the final dilution containing DMSO in the absence of the candidate molecule. The final DMSO concentration in the assay is 3%. Kinase assays are performed as a two part reaction. […] The second reaction involves termination of the kinase reaction and the simultaneous addition of the detection reagents-europium-labeled anti-phosphotyrosine reagent (Eu-W1024-PY100, Perkin Elmer, Boston, Mass.) and Streptavidin-Allophycocyanin detection reagent (SA-APC, Prozyme, CA). The kinase reaction is performed in a black U-bottom 96-well microtitre plate. […] The reaction is allowed to proceed for 1 hour at room temperature. The quench buffer contains 100 mM Tris pH 7.5, 300 mM […], 20 mM EDTA, 0.02% Brij35, and 0.5% BSA. The detection reagents are added to the reaction mixture at the following dilutions-1:500 for Eu-W1024-PY100 and 1:250 for SA-APC. The kinase reaction is terminated by the addition of 50 μL quench buffer containing the detection reagents. The detection is allowed to proceed for 1 hr at room temperature. Detection of the phosphorlated substrate in the absence and presence of inhibitors is measured in the TR-FRET instrument, Analyst HT (Molecular Probes, Sunnyvale, Calif.) and the condition for measurements are set up using CriterionHost Release 2.0 (Molecular Probes, Sunnyvale, Calif.). […] IC50s were derived by non-linear regression analysis.

**Q.** `CC[C@@H](Nc1nnc(C(N)=O)c(Nc2ccc3cnn(C)c3c2)n1)C(N)=O` [Example 180, (R)-3-((1-amino-1-oxobutan-2-yl)amino)-5-((1-methyl-1H-indazol-6-yl)amino)-1,2,4-triazine-6-carboxamide] was tested. Which pIC50 did it give?
**A.** 8.00 to 9.00

**Q.** `Cn1cc(Nc2nc(N[C@@H]3CCCC[C@@H]3N)nnc2C(N)=O)cn1` [Example 78, 3-(((1R,2S)-2-aminocyclohexyl)amino)-5-((1-methyl-1H-pyrazol-4-yl)amino)-1,2,4-triazine-6-carboxamide] was tested. Which pIC50 did it give?
**A.** 6.00 to 7.00

**Q.** `Cn1ccc2cc(Nc3nc(N[C@H]4CN[C@@H](CO)C4)nnc3C(N)=O)cnc21` [Example 153, 3-(((3R,5R)-5-(hydroxymethyl)pyrrolidin-3-yl)amino)-5-((1-methyl-1H-pyrrolo[2,3-b]pyridin-5-yl)amino)-1,2,4-triazine-6-carboxamide] was tested. Which pIC50 did it give?
**A.** 7.00 to 8.00

**Q.** `NC(=O)c1nnc(N[C@@H]2CCCC[C@@H]2N)nc1Nc1cnc2ncccc2c1` [Example 45, 5-((1,8-naphthyridin-3-yl)amino)-3-(((1R,2S)-2-aminocyclohexyl)amino)-1,2,4-triazine-6-carboxamide] was tested. Which pIC50 did it give?
**A.** 7.00 to 8.00

**Q.** With `CC[C@@H](Nc1nnc(C(N)=O)c(Nc2cc(C)cc(F)c2)n1)C(N)=O` [Example 197, (R)-3-((1-amino-1-oxobutan-2-yl)amino)-5-((3-fluoro-5-methylphenyl)amino)-1,2,4-triazine-6-carboxamide] as the compound, how does the pIC50 read?
**A.** 7.00 to 8.00

**Q.** With `CC[C@@H](Nc1nnc(C(N)=O)c(Nc2cccc(-c3ncccn3)c2)n1)C(N)=O` [Example 84, (R)-3-((1-amino-1-oxobutan-2-yl)amino)-5-((3-(pyrimidin-2-yl)phenyl)amino)-1,2,4-triazine-6-carboxamide] as the compound, how does the pIC50 read?
**A.** 6.00 to 7.00

**Q.** How did the pIC50 turn out when `NC(=O)c1nnc(N[C@H](CC(F)(F)F)C(N)=O)nc1Nc1ccc2ncccc2c1` [Example 149, (R)-3-((1-amino-4,4,4-trifluoro-1-oxobutan-2-yl)amino)-5-(quinolin-6-ylamino)-1,2,4-triazine-6-carboxamide] was run?
**A.** 8.00 to 9.00

**Q.** `NC(=O)c1nnc(N[C@@H]2CCCC(F)(F)[C@@H]2N)nc1Nc1ccc2c(ccc[n+]2[O-])c1` [Example 50, 6-((3-(((1R,2R)-2-amino-3,3-difluorocyclohexyl)amino)-6-carbamoyl-1,2,4-triazin-5-yl)amino)quinoline 1-oxide] was tested. Which pIC50 did it give?
**A.** 6.00 to 7.00

**Q.** With `NC(=O)c1nnc(N[C@@H]2CCCC[C@@H]2N)nc1Nc1cccc(F)c1` [Example 17, 3-(((1R,2S)-2-aminocyclohexyl)amino)-5-((3-fluorophenyl)amino)-1,2,4-triazine-6-carboxamide] as the compound, how does the pIC50 read?
**A.** 8.00 to 9.00

**Q.** How did the pIC50 turn out when `Cn1ccc2c(Nc3nc(NCC4CCC(=O)N4)nnc3C(N)=O)cccc21` (centres unmarked) [Example 89, 5-((1-methyl-1H-indol-4-yl)amino)-3-(((5-oxopyrrolidin-2-yl)methyl)amino)-1,2,4-triazine-6-carboxamide] was run?
**A.** 6.00 to 7.00

**Q.** `CC[C@@H](Nc1nnc(C(N)=O)c(Nc2ccc3ncccc3c2)n1)C(N)=O` [Example 51, (R)-3-((1-amino-1-oxobutan-2-yl)amino)-5-(quinolin-6-ylamino)-1,2,4-triazine-6-carboxamide] was tested. Which pIC50 did it give?
**A.** 8.00 to 9.00

**Q.** With `CC[C@@H](Nc1nnc(C(N)=O)c(Nc2ccc(C(F)(F)F)cc2)n1)C(N)=O` [Example 169, (R)-3-((1-amino-1-oxobutan-2-yl)amino)-5-((4-(trifluoromethyl)phenyl)amino)-1,2,4-triazine-6-carboxamide] as the compound, how does the pIC50 read?
**A.** 7.00 to 8.00

**Q.** With `NC(=O)c1nnc(N[C@@H]2CCCC[C@@H]2N)nc1Nc1ccc(-c2ncco2)cc1` [Example 131, 3-(((1R,2S)-2-aminocyclohexyl)amino)-5-((4-(oxazol-2-yl)phenyl)amino)-1,2,4-triazine-6-carboxamide] as the compound, how does the pIC50 read?
**A.** 8.00 to 9.00

**Q.** `NC(=O)c1nnc(N[C@@H]2CCCC[C@@H]2N)nc1Nc1cccnc1` [Example 100, 3-(((1R,2S)-2-aminocyclohexyl)amino)-5-(pyridin-3-ylamino)-1,2,4-triazine-6-carboxamide] was tested. Which pIC50 did it give?
**A.** 7.00 to 8.00

**Q.** `CC(C)C[C@@H](Nc1nnc(C(N)=O)c(Nc2ccc3ncccc3c2)n1)C(N)=O` [Example 53, (R)-3-((1-amino-4-methyl-1-oxopentan-2-yl)amino)-5-(quinolin-6-ylamino)-1,2,4-triazine-6-carboxamide] was tested. Which pIC50 did it give?
**A.** 8.00 to 9.00

**Q.** With `CC(C)[C@@H](Nc1nnc(C(N)=O)c(Nc2cccc3c2ccn3C)n1)C(N)=O` [Example 87, (R)-3-((1-amino-3-methyl-1-oxobutan-2-yl)amino)-5-((1-methyl-1H-indol-4-yl)amino)-1,2,4-triazine-6-carboxamide] as the compound, how does the pIC50 read?
**A.** 7.00 to 8.00

**Q.** How did the pIC50 turn out when `CC[C@@H](Nc1nnc(C(N)=O)c(Nc2cccc(C(F)(F)F)c2)n1)C(N)=O` [Example 171, (R)-3-((1-amino-1-oxobutan-2-yl)amino)-5-((3-(trifluoromethyl)phenyl)amino)-1,2,4-triazine-6-carboxamide] was run?
**A.** 6.00 to 7.00

**Q.** How did the pIC50 turn out when `Cn1ccc2cc(Nc3nc(N[C@@H]4CCCC[C@@H]4N)nnc3C(N)=O)cnc21` [Example 154, 3-(((1R,2S)-2-aminocyclohexyl)amino)-5-((1-methyl-1H-pyrrolo[2,3-b]pyridin-5-yl)amino)-1,2,4-triazine-6-carboxamide] was run?
**A.** 8.00 to 9.00

**Q.** How did the pIC50 turn out when `Cn1ccc2c(Nc3nc(N[C@@H]4CCCC[C@@H]4N)nnc3C(N)=O)ccnc21` [Example 129, 3-(((1R,2S)-2-aminocyclohexyl)amino)-5-((1-methyl-1H-pyrrolo[2,3-b]pyridin-4-yl)amino)-1,2,4-triazine-6-carboxamide] was run?
**A.** > 9.00

**Q.** With `Cc1cccc(Nc2nc(N[C@@H]3CCCC(F)(F)[C@@H]3N)nnc2C(N)=O)c1` [Example 12, 3-(((1R,2R)-2-amino-3,3-difluorocyclohexyl)amino)-5-(m-tolylamino)-1,2,4-triazine-6-carboxamide] as the compound, how does the pIC50 read?
**A.** 7.00 to 8.00

**Q.** How did the pIC50 turn out when `Cn1ncc2c(Nc3nc(N[C@@H]4CCCC[C@@H]4N)nnc3C(N)=O)ccnc21` [Example 104, 3-(((1R,2S)-2-aminocyclohexyl)amino)-5-((1-methyl-1H-pyrazolo[3,4-b]pyridin-4-yl)amino)-1,2,4-triazine-6-carboxamide] was run?
**A.** 7.00 to 8.00

**Q.** `CN(C)c1ccc(Nc2nc(N[C@@H]3CCCC[C@@H]3N)nnc2C(N)=O)cc1F` [Example 161, 3-(((1R,2S)-2-aminocyclohexyl)amino)-5-((4-(dimethylamino)-3-fluorophenyl)amino)-1,2,4-triazine-6-carboxamide] was tested. Which pIC50 did it give?
**A.** 7.00 to 8.00

**Q.** How did the pIC50 turn out when `NC(=O)c1nnc(N[C@@H]2CCCC[C@@H]2N)nc1Nc1cccc(OC(F)F)c1` [Example 124, 3-(((1R,2S)-2-aminocyclohexyl)amino)-5-((3-(difluoromethoxy)phenyl)amino)-1,2,4-triazine-6-carboxamide] was run?
**A.** 8.00 to 9.00

**Q.** With `CC[C@@H](Nc1nnc(C(N)=O)c(Nc2ccc(N3CCOCC3)c(F)c2)n1)C(N)=O` [Example 31, (R)-3-((1-amino-1-oxobutan-2-yl)amino)-5-((3-fluoro-4-morpholinophenyl)amino)-1,2,4-triazine-6-carboxamide] as the compound, how does the pIC50 read?
**A.** 7.00 to 8.00

**Q.** `NC(=O)c1nnc(N[C@@H]2CCCC[C@@H]2N)nc1NC1CCc2ccccc2C1` (stereo partly drawn) [Example 206, 3-(((1R,2S)-2-aminocyclohexyl)amino)-5-((1,2,3,4-tetrahydronaphthalen-2-yl)amino)-1,2,4-triazine-6-carboxamide] was tested. Which pIC50 did it give?
**A.** 7.00 to 8.00

**Q.** With `CC(C)C[C@@H](Nc1nnc(C(N)=O)c(Nc2cccc3c2cnn3C)n1)C(N)=O` [Example 108, (R)-3-((1-amino-4-methyl-1-oxopentan-2-yl)amino)-5-((1-methyl-1H-indazol-4-yl)amino)-1,2,4-triazine-6-carboxamide] as the compound, how does the pIC50 read?
**A.** 7.00 to 8.00

**Q.** How did the pIC50 turn out when `NC(=O)c1nnc(N[C@@H]2CCOC[C@@H]2N)nc1Nc1ccc2scnc2c1` [Example 247, 3-(((3R,4R)-3-aminotetrahydro-2H-pyran-4-yl)amino)-5-(benzo[d]thiazol-5-ylamino)-1,2,4-triazine-6-carboxamide] was run?
**A.** 7.00 to 8.00

**Q.** With `CC[C@@H](Nc1nnc(C(N)=O)c(Nc2ccc(C(F)(F)F)c(C(F)(F)F)c2)n1)C(N)=O` [Example 135, (R)-3-((1-amino-1-oxobutan-2-yl)amino)-5-((3,4-bis(trifluoromethyl)phenyl)amino)-1,2,4-triazine-6-carboxamide] as the compound, how does the pIC50 read?
**A.** 7.00 to 8.00

**Q.** `CC(C)C[C@@H](Nc1nnc(C(N)=O)c(Nc2ccc(Cl)c(Cl)c2)n1)C(N)=O` [Example 255, (R)-3-((1-amino-4-methyl-1-oxopentan-2-yl)amino)-5-((3,4-dichlorophenyl)amino)-1,2,4-triazine-6-carboxamide] was tested. Which pIC50 did it give?
**A.** 7.00 to 8.00
